# Patent US8084602B2, “Porphyrin derivatives and their use in photodynamic therapy” (Destiny Pharma Limited, priority 2002, dated 2011)
# Like-named read-outs stand apart in the source and are kept apart here.
# How the values were obtained:
# [1] = tested on: Escherichia coli (strain ATCC 25922); experiment: Initial screening: growth inhibition after white light illumination; format: cell-based; conditions: for Growth inhibition (%): E. coli, 3 μM, 5 min incubation; for inhibition at 3 µM: Escherichia coli
# Protocol: (§1) The toxic effects of exemplary compounds of the invention against two bacterial strains, the Gram negative bacterium Escherichia coli (strain ATCC 25922) and the Gram positive bacterium Staphylococcus aureus (methicillin-resistant strain ATTC BAA-44), were evaluated by measuring the extent of growth inhibition (bacteriostatic effect) and growth […] (cytocidal effect) in the dark and upon light exposure. Initial compound screening was undertaken using white light [390-740 nm] (150 mW/cm^2) for various timepoints of a concentration of 3 μM (see Table 1). Further experiments were undertaken on those compounds identified from this initial screen using a light source emitting light at a wavelength between 417-420 nm at 15.2 mW/cm^2, 13.68 J/cm^2 (Waldmann Eclairage SA, France) (see Table 20.
# (§2) The following protocol was used for the initial screening of the exemplary compounds (Table 1) (see Reddi et al., 2002, Photochem. Photobiol. 75(5):462-470): • (i) E. coli and S. aureus cells were grown overnight on brain heart infusion agar, resuspended in brain heart infusion broth, harvested by centrifugation (3000 g for 15 minutes) and washed once with phosphate buffered saline (PBS) at pH 7.4 consisting 2.7 mM KCl and 0.14 M NaCl. • (ii) The cells were then resuspended in PBS to an optical density at 650 nm of 0.7, which corresponds to a density of 10^8 to 10^9 cells/ml. • (iii) Next, the cells were incubated in PBS in the dark for 5 minutes with 3.0 μM of the compound to be tested. • (iv) After dark incubation, cells were illuminated with white light (wavelength: 390 to 740 nm) (150 mW/cm^2) for up to 30 minutes. During illumination, the cells were kept at 37° C. and magnetically stirred. • (v) Finally, treated and untreated (control) cells were diluted in brain heart infusion broth and maintained at […] while the absorbance of the suspension at 650 nm was monitored at predetermined time points for determining growth curves.
# (§3) The percent of growth inhibition in the treated cells was calculated by the following equation: [1−(Ax−A0)/(Ac−A0)]×100 where Ax Ac are the absorbances measured after 3 hours incubation, for the treated and control cell suspensions, respectively, and A0 represents the initial absorbance.
# [2] = tested on: Staphylococcus aureus (methicillin-resistant strain ATTC BAA-44); experiment: as above; format: cell-based; conditions: for Growth inhibition (%): S. aureus, 3 μM, 5 min incubation; for inhibition at 3 µM: Staphylococcus aureus
# Protocol: as §1, §2, §3
# [3] = tested on: S. aureus ATCC BAA-44 (a methicillin resistant S. aureus); experiment: Cell survival (colony forming unit) with or without illumination; format: cell-based, Staphylococcus aureus; conditions: S. aureus
# Protocol: as §1
# For the further investigation of the exemplary compounds (Table 2), the following protocol was adopted: • (i) Bacteria (S. aureus BAA-44 and E. coli 25922) were grown in brain heart infusion (BHI) broth until they reached the stationary phase of growth. • (ii) The cells were harvested by centrifugation (3000 g for 15 min) with a table centrifuge, washed with 10 mM PBS at pH 7.4 containing 2.7 mM KCl and 0.14 M NaCl and suspended in PBS at an optical density of 0.7 at 650 nm corresponding to 10^8-10^9 cells/ml. • (iii) The bacteria, at the desired cell density (˜10^8 cells/ml) were incubated for 5 min in the dark with various concentrations of the exemplary compounds. • (iv) At the end of the incubation period the cells were washed three times with PBS, suspended in PBS, transferred into a 96-well microtitre plate (200 μl/well) and illuminated for 15 min with the Waldmann light source (15.2 mW/cm^2; 13.7 J/cm^2). The cells were illuminated from the bottom of the plate laying it on the glass cover of the lamp. • (v) After illumination, cell survival was determined by plating serially diluted aliquots of treated and untreated (i.e. no exemplary compound or light present) cells onto brain heart agar (BHA) and counting the number of colonies after 18-24 h incubation at 37° C.
# the above colony forming unit (CFU) protocol was also used to investigate the photodynamic activity of very low concentrations of the compounds of the invention.
# [4] = ATCC25922, 5 min, read-out: Growth inhibition (%), E. coli, 5 min incubation, illumination time 5 min
# [5] = ATCC25922, read-out: Growth inhibition (%), E. coli, 5 min incubation, illumination time 0 min
# [6] = ATCC25922, read-out: Growth inhibition (%), E. coli, 5 min incubation, illumination time 1 min
# [7] = ATCC25922, read-out: Growth inhibition (%), E. coli, 5 min incubation, illumination time 10 min
# [8] = ATCC25922, read-out: Growth inhibition (%), E. coli, 5 min incubation, illumination time 15 min
# [9] = ATCC25922, read-out: Growth inhibition (%), E. coli, 5 min incubation, illumination time 30 min
# [10] = BAA44, 5 min, read-out: Growth inhibition (%), S. aureus, 5 min incubation, illumination time 5 min
# [11] = BAA44, read-out: Growth inhibition (%), S. aureus, 5 min incubation, illumination time 0 min
# [12] = BAA44, read-out: Growth inhibition (%), S. aureus, 5 min incubation, illumination time 1 min
# [13] = BAA44, read-out: Growth inhibition (%), S. aureus, 5 min incubation, illumination time 10 min
# [14] = BAA44, read-out: Growth inhibition (%), S. aureus, 5 min incubation, illumination time 15 min
# [15] = BAA44, read-out: Growth inhibition (%), S. aureus, 5 min incubation, illumination time 30 min
Compound,Growth inhibition (%) ([1]; illumination time 0 min),Growth inhibition (%) ([1]; illumination time 1 min),Growth inhibition (%) ([1]; illumination time 5 min),Growth inhibition (%) ([1]; illumination time 10 min),Growth inhibition (%) ([1]; illumination time 15 min),Growth inhibition (%) ([1]; illumination time 30 min),Growth inhibition (%) ([2]; illumination time 0 min),Growth inhibition (%) ([2]; illumination time 1 min),Growth inhibition (%) ([2]; illumination time 5 min),Growth inhibition (%) ([2]; illumination time 10 min),Growth inhibition (%) ([2]; illumination time 15 min),Growth inhibition (%) ([2]; illumination time 30 min),"inhibition at 3 µM [2, 10] [%]","inhibition at 3 µM [2, 11] [%]","inhibition at 3 µM [2, 12] [%]","inhibition at 3 µM [2, 13] [%]","inhibition at 3 µM [2, 14] [%]","inhibition at 3 µM [2, 15] [%]",also measured
"5,10,15-tris-[4-(3-Trimethyl-ammoniopropyloxy)-phenyl]-20-(4-tetradecyloxy-phenyl)-porphyrin trichloride [Compound 36, reference compound]",6,56,84,90,92,95,22,96,100,100,100,100,,,,,,,
"5,10,15-tris[3-(3-Trimethyl-ammoniopropyloxy)-phenyl]-20-(3-undecyloxy-phenyl)-porphyrin trichloride [Compound 33, reference compound]",6,10,25,53,67,78,22,57,99,100,100,100,,,,,,,
"5,15-bis-[3-(3-Trimethylammmonio-proploxy)-phenyl]-10-undecyl-porphyrin dichloride [Compound 28]",4,21,60,73,81,92,15,91,100,100,100,100,,,,,,,
5-[4-(3-Dimethyldecyl-ammoniopropyloxy)-phenyl]-15-{4-[3-dimethyl-(3-dimethylaminopropyl)-ammoniopropyloxy]-phenyl}-porphyrin dichloride [Compound 32],3,10,16,22,22,38,23,100,100,100,100,100,,,,,,,
5-{4-[3-Dimethyl-(3-trimethylammonio-propyl)-ammonio-propyloxy]-phenyl}-15-(4-dodecyloxy-phenyl)-porphyrin dichloride [Compound 31],,,,,,,9,28,38,78,82,83,,,,,,,
"CCCCCCCCCCCOc1ccc(-c2c3nc(c(-c4ccc(OCCC[N+](C)(C)C)cc4)c4ccc([nH]4)c(-c4ccc(OCCC[N+](C)(C)C)cc4)c4nc(c(-c5ccc(OCCC[N+](C)(C)C)cc5)c5ccc2[nH]5)C=C4)C=C3)cc1.[Cl-].[Cl-].[Cl-] [Compound 3, 5,10,15-tris-[4-(3-Trimethylammonio-propyloxy)-phenyl]-20-(4-undecyloxy-phenyl)-porphyrin trichloride, reference compound]",,,,,,,,,,,,,100,21,83,100,100,100,"inhibition at 3 µM [1, 4]: 99%; inhibition at 3 µM [1, 5]: 5%; inhibition at 3 µM [1, 6]: 68%; inhibition at 3 µM [1, 7]: 100%; inhibition at 3 µM [1, 8]: 99%; inhibition at 3 µM [1, 9]: 99%; Log reduction ([3]; dark toxicity (no illumination), 1 μM): <1 (<10^−1); Log reduction ([3]; dark toxicity (no illumination), 10 μM): >3 (>10^−3); Log reduction ([3]; photodynamic activity, 1 μM, illumination 15 min): >3 (>10^−3); Log reduction ([3]; photodynamic activity, 10 μM, illumination 15 min): >6 (>10^−6)"
"CCCCCCCCCCCOc1ccc(-c2c3nc(c(-c4ccc(OCCC[N+](CC)(CC)CC)cc4)c4ccc([nH]4)c(-c4ccc(OCCC[N+](CC)(CC)CC)cc4)c4nc(c(-c5ccc(OCCC[N+](CC)(CC)CC)cc5)c5ccc2[nH]5)C=C4)C=C3)cc1 [Compound 16, 5,10,15-tris-[4-(3-Triethylammonio-propyloxy)-phenyl]-20-(4-undecyloxy-phenyl)-porphyrin trichloride, reference compound]",,,,,,,,,,,,,100,12,97,100,100,100,"inhibition at 3 µM [1, 4]: 92%; inhibition at 3 µM [1, 5]: 8%; inhibition at 3 µM [1, 6]: 34%; inhibition at 3 µM [1, 7]: 99%; inhibition at 3 µM [1, 8]: 100%; inhibition at 3 µM [1, 9]: 100%"
"CCCCCCCCCCCOc1ccc(-c2c3nc(c(-c4ccc(OCCCCCCCCCCC)cc4)c4ccc([nH]4)c(-c4ccc(OCCC[N+](C)(C)C)cc4)c4nc(c(-c5ccc(OCCC[N+](C)(C)C)cc5)c5ccc2[nH]5)C=C4)C=C3)cc1 [Compound 29, 5,10-bis-[4-(3-Trimethylammonio-propyloxy)-phenyl]-15,20-bis-(4-undecyloxy-phenyl)-porphyrin dichloride, reference compound]",,,,,,,,,,,,,49,14,43,53,55,55,
